Data as given in US20250057791A1, “PROTECTION AGAINST ARTHROPOD PARASITES WITH PURINERGIC RECEPTOR (OPR) ANTAGONISTS” (priority 2021, published 2025).

Test system: A. gambiae labellum sensilla (purine-sensitive cell)
Assay: Tip recording of action potentials from A. gambiae labellum sensilla in response to agonists
Type: cell-based, Anopheles gambiae
Method: The tip recording method was used to record action potentials (spikes) from sensory cells in sensilla on A. gambiae labellum lobes.
Sensilla were exposed to test compounds and PR antagonists for ca. 2-4 s and spikes were counted in the first 2 s of recordings. Up to 4 test compounds were tested on a sensillum to evaluate potential agonists, each presented at 200 pM. To study responses as a function of dose for agonists ATP, adenosine, AMP, AMP-CPP and ATP+adenosine, up to 7 recordings were made at increasing doses of agonist from the same sensillum. Unless otherwise stated, recordings were made throughout from 4 to 16 sensilla from individual 4-6-day-old females per dose of agonist, antagonist and metal ion modulator. For example, a response curve established over 6 doses of an antagonist using 8 sensilla per dose involved recording from a sensillum of 48 separate mosquitoes. A given dose of a PR antagonist or metal ion modulator was only presented once to a sensillum. Two-second recordings were imported as ASCII files into DataView software for analysis of spike amplitude. Differences in spike amplitude generated by stimulation of one 8v sensillum/female with 1 mM sucrose (n=294 spikes from 6 females) 200 pM adenosine (n=207 spikes from 7 females) and 200 pM ATP (n=192 spikes from 7 females) were compared by measuring the spike amplitude in mV between the highest point of depolarisation and the lowest point of hyperpolarisation.
Spike counts elicited by 200 pM doses of nucleotides, nucleosides, purines, pyrimidines and water were log(x+1.25)-transformed (optimal constant numerically established using a maximum likelihood procedure) and analysed using a linear mixed effects model (function ‘lme’ in “nlme” R package) with mosquito number as random effect. To model inhomogeneous variance in residuals (near normal distribution, P=0.045, Shapiro-Wilk test, W=0.98604), the variance function ‘varldent’ in the “nlme” package that allows for different variance per treatment was used. Statistical differences were identified between treatments using post-hoc-Tukey test with contrasts adjusted by Holm's family wise error compensation (FWEC). Spike counts elicited by ATP, AMP, adenosine and their binary mixtures were analysed using a generalised linear model (LM) of log (x+10) transformed data and differences were identified using post-hoc-Tukey test with Holm's FWEC.
Log transformed spike amplitudes generated in response to ATP, adenosine and sucrose were compared using linear mixed effects models using the ‘lme’ function of the “nlme” R package, with spike amplitude as the dependent variable, treatment as the fixed factor and mosquito number within treatment as random effect. Residuals were normally distributed (Shapiro-Wilk test P>0.0563) and their variances homogeneous (Bartlett test P>0.9799); P-values were corrected using Holm's FWEC.
Dose-response models fitted to mosquito data were generated using the ‘drm’ command in the “drc” R package (version 2.5-12). Best fitting models (goodness of fit) and effects of dose of a compound were assessed using, respectively, ‘modelFit’ and ‘noEffect’ functions in the same R package. A 3-parameter logistic model (L3) was fitted to spike-counts recorded to increasing doses of adenosine, AMP, ATP and AMP-CPP. Spike numbers recorded in response to 200 pM ATP with increasing doses of PR antagonists added were analysed using a 4-parameter log-logistic model (LL.4) for A-317491 and spinorphin, using a 4-parameter Weibull model (W1.4) for PPADS, RB-2 and TMP, and using a 3-parameter log-logistic model (LL.3) for suramin. An L3 model was fitted to proportions of females feeding on increasing doses of ATP. Feeding rates on 20 μM ATP with increasing doses of a PR antagonist added were analysed using a 4-parameter log-logistic model (LL.4) with the median of the positive control (20 μM ATP) fixed as the upper asymptote. […]

[1] = spike frequency as a function of dose

**Q.** `Nc1ncnc2c1ncn2[C@@H]1O[C@H](COP(=O)(O)OP(=O)(O)OP(=O)(O)O)[C@@H](O)[C@H]1O` [ATP, Adenosine 5′-triphosphate] was tested. Which spike frequency (50 pM alone, mixture 50 pM of each agonist) did it give?
**A.** The spike frequency was 2.5±0.7 /2s.

**Q.** What about the EC50 (Anopheles gambiae, spike frequency as a function of dose, read-out: ED50 (the source's name)) of the same compound?
**A.** The EC50 was roughly 0.12 nM.

**Q.** And the “spikes recorded at the asymptote” value (at 250 pM)?
**A.** The value was “approximately 30 spikes/2 s”.

**Q.** What about the “Mean spike frequency per 2 s (±SEM)” value (each compound at 200 pM alone and in binary mixtures, T1 labellum sensilla) of the same compound?
**A.** Its value is 33.04 per 2 s.

**Q.** What about the detection threshold (labellum sensory cell) of the same compound?
**A.** Its detection threshold is less than 100 pM.

**Q.** What about the ED95 [1] of the same compound?
**A.** The ED95 was roughly 0.2 nM.

**Q.** What about the “dose at which the unsurmountable asymptote is reached” value [1] of the same compound?
**A.** The value was 250 pM.
